Entries after “also recorded” stand apart in the source; their conditions may differ. Read-outs that look alike come from different tables or passages of the source.
How the values were obtained:
[1] = system: Human lung microvascular endothelial cells (HMVEC-L); details: HMVEC-L treated with 10 μM; cited from earlier work
[2] = system: animals; test: toxicity in animals
[3] = system: humans; test: toxicity in Phase 1 clinical trials / humans
[4] = system: animals; details: in vivo
[5] = system: humans; details: human, in vivo
[6] = system: sE-selectin; details: cited from earlier work
[7] = target: T1, E-selectin (Homo sapiens, UniProt P16581); test: binding and inhibiting E-selectin
T1 sequence (P16581 22-610): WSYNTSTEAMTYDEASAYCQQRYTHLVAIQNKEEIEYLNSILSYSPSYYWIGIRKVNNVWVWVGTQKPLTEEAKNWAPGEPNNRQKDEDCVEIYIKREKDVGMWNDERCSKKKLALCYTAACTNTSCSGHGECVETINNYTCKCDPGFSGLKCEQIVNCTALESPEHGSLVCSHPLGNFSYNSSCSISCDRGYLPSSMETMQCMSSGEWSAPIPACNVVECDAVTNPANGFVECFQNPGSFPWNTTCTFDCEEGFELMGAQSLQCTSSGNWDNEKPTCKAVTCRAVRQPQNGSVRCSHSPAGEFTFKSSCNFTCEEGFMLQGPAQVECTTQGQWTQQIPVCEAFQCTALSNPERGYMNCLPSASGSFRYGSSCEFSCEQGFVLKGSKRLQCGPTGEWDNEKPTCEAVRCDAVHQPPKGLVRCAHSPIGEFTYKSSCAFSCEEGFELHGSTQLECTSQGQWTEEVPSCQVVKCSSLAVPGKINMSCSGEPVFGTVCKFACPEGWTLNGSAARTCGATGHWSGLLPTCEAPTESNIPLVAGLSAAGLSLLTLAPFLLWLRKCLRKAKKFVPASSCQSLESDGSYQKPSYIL

[8] = system: human umbilical vein endothelial cells (HUVEC); details: cytokine treatment over 4 hours, vs Medium control; cited from earlier work
[9] = system: human dermal microvascular endothelial cells (HDMEC); details: cytokine treatment over 4 hours, vs Medium control; cited from earlier work
[10] = system: COVID-19 patients; details: of six COVID-19 patients in the ICU; cited from earlier work

## CCCCCCCCCCCCCCC(Cl)C(=O)O (stereo not shown) [Compound 2-CIPA, 2-chloropalmitic acid]
[1]
  adherence of human neutrophils: promoted neutrophil adhesion; also recorded: increases adhesion of neutrophils

## C[C@@H]1O[C@@H](O[C@@H]2[C@@H](NC(=O)c3cc(=O)[nH]c(=O)[nH]3)C[C@@H](C(=O)NCCNC(=O)COCCOCC(=O)Nc3cc(S(=O)(=O)O)cc4cc(S(=O)(=O)O)cc(S(=O)(=O)O)c34)C[C@H]2O[C@@H]2O[C@H](CO)[C@H](O)[C@H](O[C@@H](CC3CCCCC3)C(=O)O)[C@H]2OC(=O)c2ccccc2)[C@@H](O)[C@H](O)[C@@H]1O [GMI-1070]
[2]
  toxicities: no measurable toxicities
[2]; relatively high concentrations
  toxicity: no toxicity
[3]; Phase 1 clinical trials
  toxicities: no measurable toxicities
[3]; humans, relatively high concentrations
  toxicity: no toxicity

## CC[C@H]1C[C@@H](C(=O)NCCNC(=O)CCOCCOCCOCCOCCOCCOCCOCCOCCOCCOCCOCCOC)C[C@@H](O[C@@H]2O[C@H](CO)[C@H](O)[C@H](O[C@@H](CC3CCCCC3)C(=O)[O-])[C@H]2NC(C)=O)[C@@H]1O[C@@H]1O[C@@H](C)[C@@H](O)[C@@H](O)[C@@H]1O.[Na+] [GMI-1271]
[4]
  toxicities: no measurable toxicities
  toxicity: no toxicity
[5]
  toxicities: no measurable toxicities
  toxicity: no toxicity
[6]; AML patients, after treatment, all dose groups
  sE-selectin circulating (plasma) levels: significantly (P<0.0001) reduced; also recorded: decreased over the treatment period in all dose groups
[6]; end of 6 days of dosing concurrently with MEC chemotherapy
  decrease of plasma soluble E-selectin from baseline to Day 8: highly significant (p<0.0001) with no dose response
[7]
  antagonism of E-selectin: potent antagonists of E-selectin

## CCCCCCCCCCCCCCCC(=O)O [PA, palmitic acid]
[1]
  adherence of human neutrophils: did not

## IL-1β: cytokine used to treat endothelial cells
[8]
  expression of E-selectin: stimulate expression of E-selectin
[9]
  expression of E-selectin: stimulate expression of E-selectin

## TNFα
[8]
  expression of E-selectin: stimulate expression of E-selectin
[9]
  expression of E-selectin: stimulate expression of E-selectin

## tocilizimab: antibody directed against the cytokine, IL-6, approved as an anti-inflammatory drug
[10]
  patients who died: one
  patients who showed improvement: three
  patients who stabilized: two

B1: IL-10: cytokine used to treat endothelial cells (protein, UniProt P22301 19-178, looked up)
Interleukin-10: SPGQGTQSENSCTHFPGNLPNMLRDLRDAFSRVKTFFQMKDQLDNLLLKESLLEDFKGYLGCQALSEMIQFYLEEVMPQAENQDPDIKAHVNSLGENLKTLRLRLRRCHRFLPCENKSKAVEQVKNAFNKLQEKGIYKAMSEFDIFINYIEAYMTMKIRN
[8]
  expression of E-selectin: stimulate expression of E-selectin
[9]
  expression of E-selectin: stimulate expression of E-selectin
